We go through five compounds from ChEMBL document CHEMBL3098069, “Azide-alkyne cycloaddition affording enzymatically tunable bisubstrate based inhibitors of histone acetyltransferase PCAF” (Bioorg Med Chem Lett, 2014).

In data set [1] the target is T1, Histone acetyltransferase KAT2B (Homo sapiens, UniProt Q92831). Put plainly: Inhibition of PCAF (unknown origin) using histone H3 derived peptide as substrate at 10^-6 to 10^-3 M after 20 mins by fluorescence assay.
Target sequence in this assay (Q92831 whole entry, looked up): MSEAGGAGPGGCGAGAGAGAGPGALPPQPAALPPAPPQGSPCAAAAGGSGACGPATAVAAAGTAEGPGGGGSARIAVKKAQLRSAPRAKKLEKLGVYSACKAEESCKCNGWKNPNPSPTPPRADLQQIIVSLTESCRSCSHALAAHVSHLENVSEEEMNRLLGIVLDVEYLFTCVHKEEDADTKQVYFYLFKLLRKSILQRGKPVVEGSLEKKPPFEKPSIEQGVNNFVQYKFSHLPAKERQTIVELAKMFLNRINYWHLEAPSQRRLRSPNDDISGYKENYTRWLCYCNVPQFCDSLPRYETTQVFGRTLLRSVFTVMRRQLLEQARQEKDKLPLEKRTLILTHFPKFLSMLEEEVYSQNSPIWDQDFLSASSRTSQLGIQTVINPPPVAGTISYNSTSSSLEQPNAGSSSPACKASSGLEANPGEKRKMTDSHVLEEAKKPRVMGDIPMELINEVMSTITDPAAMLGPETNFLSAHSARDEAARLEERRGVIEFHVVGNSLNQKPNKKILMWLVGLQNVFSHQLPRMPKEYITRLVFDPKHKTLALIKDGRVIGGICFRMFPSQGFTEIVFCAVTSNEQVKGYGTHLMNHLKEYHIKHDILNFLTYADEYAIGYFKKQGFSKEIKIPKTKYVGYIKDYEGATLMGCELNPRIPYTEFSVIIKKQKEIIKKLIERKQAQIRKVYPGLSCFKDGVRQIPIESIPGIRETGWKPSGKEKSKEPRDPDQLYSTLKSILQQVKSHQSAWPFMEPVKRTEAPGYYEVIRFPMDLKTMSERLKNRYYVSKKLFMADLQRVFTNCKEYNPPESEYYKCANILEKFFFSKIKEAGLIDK
Data set [2] has as its target T1, Histone acetyltransferase KAT2B. Description: Competitive inhibition of PCAF (unknown origin) using histone H3 derived peptide as substrate after 20 mins by fluorescence assay.
Target sequence in this assay (Q92831 whole entry): as the sequence (Q92831 whole entry, looked up) above
Data set [3] is described as follows: Drug degradation in NEB buffer assessed as Protein phosphatase 1 (unknown origin)-mediated H3-Ser-CoA formation at 1 mg after 30 mins by RP-HPLC analysis. Conditions: 0.5 h. In kind it is ADME, Homo sapiens.
Data set [4] can be described thus: Drug degradation in NEB buffer at 1 mg after 10 to 120 mins by RP-HPLC analysis. Type of data set: physicochemical.
For data set [5], the target named is T1, Histone acetyltransferase KAT2B. Put plainly: Inhibition of PCAF (unknown origin) using histone H3 derived peptide as substrate after 20 mins by fluorescence assay.
Target sequence in this assay (Q92831 whole entry): as the sequence (Q92831 whole entry, looked up) above
The target in data set [6] is Serine/threonine-protein kinase pim-1 (Homo sapiens, UniProt P11309). Put plainly: Drug degradation in NEB buffer assessed as PIM1 kinase (unknown origin)-mediated H3-pSer-CoA formation at 1 mg after 60 mins by RP-HPLC analysis. Conditions: 1 h. In kind it is ADME.
Chain of Serine/threonine-protein kinase pim-1 (P11309 whole entry): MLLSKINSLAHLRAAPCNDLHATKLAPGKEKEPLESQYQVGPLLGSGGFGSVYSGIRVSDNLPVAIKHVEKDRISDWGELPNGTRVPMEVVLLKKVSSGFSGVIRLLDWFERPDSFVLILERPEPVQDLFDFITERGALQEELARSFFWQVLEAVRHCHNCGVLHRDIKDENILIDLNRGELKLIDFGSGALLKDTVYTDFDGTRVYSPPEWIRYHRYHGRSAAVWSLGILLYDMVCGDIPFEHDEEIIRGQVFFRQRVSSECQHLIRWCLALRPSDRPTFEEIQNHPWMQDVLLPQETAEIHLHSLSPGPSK

The structures appear in SMILES notation. Activity calls are given as the source filed them. No cut-off for these calls is given here. Square brackets hold non-standard residues; d marks the D form. Peptide text beside a SMILES is read from it. Lys(N3) = [N-]=[N+]=NCCCC[C@H](N)C(=O)O; pS = N[C@@H](COP(=O)(O)O)C(=O)O

For `CC(=O)N[C@@H](C)C(=O)N[C@@H](CCCNC(=N)N)C(=O)N[C@@H](CCCCN)C(=O)N[C@@H](CO)C(=O)N[C@H](C(=O)NCC(=O)NCC(=O)N[C@@H](CCCCN=[N+]=[N-])C(=O)N[C@@H](C)C(=O)N1CCC[C@H]1C(=O)N[C@@H](CCCNC(=N)N)C(=O)N[C@@H](CCCCN)C(N)=O)[C@@H](C)O` (Ac-ARKSTGG[Lys(N3)]APRK-NH2), the inhibition entry in data set [1] is “inactive”.

Turning to `CC(=O)N[C@@H](C)C(=O)N[C@@H](CCCNC(=N)N)C(=O)N[C@@H](CCCCN)C(=O)N[C@@H](COP(=O)(O)O)C(=O)N[C@H](C(=O)NCC(=O)NCC(=O)N[C@@H](CCCCN=[N+]=[N-])C(=O)N[C@@H](C)C(=O)N1CCC[C@H]1C(=O)N[C@@H](CCCNC(=N)N)C(=O)N[C@@H](CCCCN)C(N)=O)[C@@H](C)O` (Ac-ARK[pS]TGG[Lys(N3)]APRK-NH2), in data set [1], the inhibition entry was “inactive”.

A word on the IC50: it is the concentration that gives 50% inhibition. As to `CC(=O)N[C@@H](C)C(=O)N[C@@H](CCCNC(=N)N)C(=O)N[C@@H](CCCCN)C(=O)N[C@@H](COP(=O)(O)O)C(=O)N[C@H](C(=O)NCC(=O)NCC(=O)N[C@@H](CCCCn1cc(CSCCNC(=O)CCNC(=O)[C@@H](O)C(C)(C)COP(=O)(O)OP(=O)(O)OC[C@H]2O[C@@H](n3cnc4c(N)ncnc43)[C@H](O)[C@@H]2OP(=O)(O)O)nn1)C(=O)N[C@@H](C)C(=O)N1CCC[C@H]1C(=O)N[C@@H](CCCNC(=N)N)C(=O)N[C@@H](CCCCN)C(N)=O)[C@@H](C)O`, the values for the IC50 in data set [2] and in data set [5] were 33 µM and 1.7 µM, respectively. For the same compound, the Drug degradation result in data set [3] is “Active”. The Stability result in data set [4] was “Unstable”.

Take `C#CCSCCNC(=O)CCNC(=O)[C@@H](O)C(C)(C)COP(=O)(O)OP(=O)(O)OC[C@H]1O[C@@H](n2cnc3c(N)ncnc32)[C@H](O)[C@@H]1OP(=O)(O)O`: the inhibition entry in data set [1] was “inactive”.

For `CC(=O)N[C@@H](C)C(=O)N[C@@H](CCCNC(=N)N)C(=O)N[C@@H](CCCCN)C(=O)N[C@@H](CO)C(=O)N[C@H](C(=O)NCC(=O)NCC(=O)N[C@@H](CCCCn1cc(CSCCNC(=O)CCNC(=O)[C@@H](O)C(C)(C)COP(=O)(O)OP(=O)(O)OC[C@H]2O[C@@H](n3cnc4c(N)ncnc43)[C@H](O)[C@@H]2OP(=O)(O)O)nn1)C(=O)N[C@@H](C)C(=O)N1CCC[C@H]1C(=O)N[C@@H](CCCNC(=N)N)C(=O)N[C@@H](CCCCN)C(N)=O)[C@@H](C)O`, the IC50 was 117 µM in data set [2] and 2.8 µM in data set [5]. In addition, in data set [4], the Stability result is reported as “Unstable”. The Drug degradation entry in data set [6] is recorded as “Active”.
